Source: patent US12728112B2, “Application of sesquiterpene lactone in preparing drug for treating optic neuritis” (ACCENDATECH LUOYANG CO., LTD., priority 2020, dated 2026)
Entries after “also recorded” stand apart in the source; their conditions may differ.

Assays:
[1] = system: TNF-α release by LPS-activated BV-2 cells; assay: TNF-α release/expression after LPS activation of BV-2 (ELISA); assay type: cell-based; settings: for TNF-α expression in BV-2 cells: 1 μg/mL LPS
Description: (§1) BV2 cells were digested, counted and plated in a 24-well plate at 1 mL and 40,000 cells per well, and the cells were then incubated overnight in an incubator at 5% CO2 and 37° C. 1 μg/mL LPS was added into each well for 1 h of action, and then ACT001 at different concentrations was added. Five experimental groups were set, namely: (1) control group; (2) ACT001-2.5 μM group; (3) ACT001-5 μM group; (4) ACT001-10 μM group; and (5) ACT001-20 μM group. After 24 h of action, the drug action was completed, the supernatant was collected and centrifuged at 12,000 rpm for 20 min, and then ELISA was performed according to the kit instructions.

[2] = system: Lewis rat NMO disease models; assay: NMO animal model: NMO patient serum and complement injected intrathecally, behavioral scoring; assay type: in vivo; settings: for Behavioral score: intragastric daily, ACT001 60 mg/kg, hormone 30 mg/kg
Description: Meanwhile, before establishing NMO animal models, firstly, the spinal intrathecal catheterization was performed on Lewis rats, wherein an outlet could be placed at the spinal cord and at the first lumbar vertebra of the rat by controlling the length (7 cm) of a PE10 soft tube. For the Lewis rats after spinal intrathecal catheterization, they had no difference in behavior from normal rats the next day after the operation. Successfully modeled rats were divided into three groups, and 10 μL of each of the serum and complement system of an NMO patient was injected into the soft tubes in the rats for which the intubation was successful, and the supplementation was performed every four days. The administration regimen was as follows: the model control group (6 animals) was intragastrically administered normal saline every day for 15 consecutive days; the hormone group (8 animals) was intragastrically administered the methylprednisolone […] for injection every day at a dose of 30 mg/kg for 15 consecutive days; and the ACT001 group (6 animals) was intragastrically administered the ACT001 solution every day at a dose of 60 mg/kg for 15 consecutive days. The animal state was observed daily, and behavioral scores were recorded based on animal symptoms.
10 μL of each of the serum and complement system of an NMO patient was injected into the soft tubes in the rats for which the spinal intrathecal catheterization was successful, and the supplementation was performed every four days, thus establishing the NMO animal models. Model animals were randomized into three groups, namely: the normal saline group, the hormone (methylprednisolone sodium succinate for injection) group and the ACT001 group, and the administration regimen is as follows:
Behavioral scoring was performed based on animal symptoms.
The scoring criteria were as follows: • 0 point: no clinical symptoms; • 1 point: decreased tail tension or mild gait clumsiness; • 2 points: no tail tension or moderate gait abnormality; weakness of both hind limbs and recovery after being turned over passively; • 3 points: paralysis of both hind limbs. no recovery after being turned over passively, but capable of moving after stimulation; • 4 points: paralysis of both hind limbs. paralysis or weakened muscle strength of the forelimbs with urinary and fecal incontinence; • 5 points: moribund state or dead.
Symptoms between two stages were measured as ±0.5.

[3] = system: IL-6 release by LPS-activated BV-2 cells; assay: IL-6 release/expression after LPS activation of BV-2 (ELISA); assay type: cell-based; settings: for IL-6 expression in BV-2 cells: 1 μg/mL LPS
Description: as §1, with “and 20,000” for “and 40,000”, “After 8” for “After 24”
as §1

BV2 cells = assay: Proliferation activity of microglial cell BV2 (MTT and CCK8 methods); assay type: cell-based; settings: Mus musculus
Text: We then intended to use ACT001 for treating neuromyelitis optica.

[4] = system: NO release by LPS-activated BV-2 cells; assay: NO release after LPS activation of BV-2; assay type: cell-based
Text: 5. FIG. 5 is a graph showing the effect of ACT001 on NO expression (*P<0.05, ** P<0.01, *** P<0.001).

[5] = LPS-activated BV-2, ACT001 10 μM, vs control group, fumarate
[6] = LPS-stimulated microglial cells, concentration not given, fumarate

Structure (SMILES) | Behavioral score ([2]; day 0 of treatment) [points] | Behavioral score ([2]; day 1 of treatment) [points] | Behavioral score ([2]; day 2 of treatment) [points] | Behavioral score ([2]; day 3 of treatment) [points] | Behavioral score ([2]; day 4 of treatment) [points] | Behavioral score ([2]; day 5 of treatment) [points] | Behavioral score ([2]; day 6 of treatment) [points] | Behavioral score ([2]; day 7 of treatment) [points] | Behavioral score ([2]; day 8 of treatment) [points] | Behavioral score ([2]; day 9 of treatment) [points] | Behavioral score ([2]; day 10 of treatment) [points] | Behavioral score ([2]; day 11 of treatment) [points] | Behavioral score ([2]; day 12 of treatment) [points] | Behavioral score ([2]; day 13 of treatment) [points] | Behavioral score ([2]; day 14 of treatment) [points] | also measured
CC1=C2CC[C@@](C)(O)[C@@H]2[C@H]2OC(=O)[C@@H](CN(C)C)[C@@H]2CC1.O=C(O)/C=C/C(=O)O [ACT001, (3R,3aS,9R,9aS,9bS)-3-((dimethylamino)methyl)-9-hydroxy-6,9-dimethyl-3,3a,4,5,7,8,9,9a-octahydroazuleno[4,5-b]furan-2(9bH)-one fumarate] | 0.00 ± 0.00 | 0.42 ± 0.20 | 0.17 ± 0.26 | 0.17 ± 0.26 | 0.00 ± 0.00 | 1.17 ± 0.68 | 1.00 ± 0.45 | 0.83 ± 0.68 | 0.33 ± 0.26 | 2.08 ± 0.86 | 1.25 ± 0.61 | 0.50 ± 0.00 | 2.00 ± 0.32 | 1.92 ± 0.38 | 1.17 ± 0.26 | TNF-α expression in BV-2 cells ([1]; ACT001 2.5, 5 and 10 μM dose groups, dose-dependent trend (FIG. 4)): reduce TNF-α expression; TNF-α expression in BV-2 cells ([1]; all ACT001 dose groups (2.5-20 μM), p<0.001 vs control (text on FIG. 3)): significantly reduced; release/expression of TNF-α [1, 5]: remarkably reduce; also recorded: significantly reduced; release of TNF-α [1, 6]: significantly reduced; tolerance of animals during administration ([2]; ACT001 60 mg/kg intragastric daily, 15 days): well tolerated; disease symptoms / behavioral scores compared to the normal saline control group ([2]; ACT001 60 mg/kg intragastric daily, 15 days, fumarate, 60 mg/kg): significantly alleviated; also recorded: significantly reduce the behavioral scores; also recorded: significantly relieve clinical symptoms; effect compared to the hormone treatment group ([2]; ACT001 60 mg/kg vs methylprednisolone 30 mg/kg, intragastric, 15 days, fumarate): not weaker than that of hormone; also recorded: basically equivalent; Behavioral score ([2]; day 15 of treatment, fumarate): 2.00±0.32 points; IL-6 expression in BV-2 cells ([3]; ACT001 20 μM, p<0.001 vs control): significantly reduced; IL-6 expression in BV-2 cells ([3]; all ACT001 groups (2.5, 5, 10, 20 μM), dose-dependent trend): reduce IL-6 expression; release/expression of IL-6 [3, 5]: remarkably reduce; also recorded: significantly reduced; release of IL-6 [3, 6]: significantly reduced; IC50 (BV2 cells; BV-2, MTT/CCK8, read-out: IC50, inhibition of proliferation of BV2 cells): 23.6 µM; IC90 (BV2 cells; BV-2, read-out: IC90, in vitro activity inhibition against BV2 cells): 99.1 ± 10.2 µM; pathological release of microglial cells NO ([4]; ACT001 5 μM (FIG. 5)): significantly could reduce; release of NO ([4]; LPS-activated microglia, ACT001 10 μM): remarkably reduce; release of NO [4, 6]: significantly reduced
C[C@H]1C[C@@H]2[C@H]([C@@H](O)C[C@@]3(C)[C@H]2CC[C@]3(O)C(=O)COC(=O)CCC(=O)O)[C@@]2(C)C=CC(=O)C=C12 [Hormone, methylprednisolone sodium succinate, reference compound] | 0.00 ± 0.00 | 0.63 ± 0.64 | 0.50 ± 0.38 | 0.44 ± 0.32 | 0.13 ± 0.23 | 1.75 ± 0.46 | 0.88 ± 0.23 | 0.63 ± 0.35 | 0.38 ± 0.23 | 2.06 ± 0.42 | 2.06 ± 0.42 | 0.88 ± 0.35 | 2.19 ± 0.26 | 2.19 ± 0.59 | 1.00 ± 0.38 | Behavioral score (Table 3, major research results) ([2]; 20 Lewis rats, female, intragastrically once daily for 15 times): group was 2.0 ± 0.3. points; Behavioral score ([2]; day 15 of treatment): 2.31 ± 0.26 points; Behavioral score ([2]; day 15 of treatment, listed as hormone): 2.31±0.26 points
